Tests used:
[1] = Compatibility study for valsartan related compound A (Impurity A), 2 weeks 60° C. closed glass vial; type: physicochemical
Procedure: Valsartan and valsartan solubilized in molten solubilizers as depicted in tables I and II respectively were subjected to compatibility studies at the following condition: • 2 weeks 60° C. closed glass vial Solubilized valsartan used for the study was prepared by melting the solubiliser/s (Kolliphor P 407, Kolliphor TPGS and combination thereof) in a beaker at water bath temperature 65° C. The drug was mixed with the molten solubiliser/s uniformly at water bath temperature 65° C. and the cooled mass was used in the studies. Levels of Impurity A were evaluated at the tabulated conditions as mentioned in Table III.

[2] = in vivo; cited from earlier work

- Impurity A level, 2 Weeks 60° C. Closed glass Vial ([1]; 2 weeks 60° C., closed glass vial): 0.05
- generation of Valsartan R-isomer impurity (Impurity A), in words ([1]; conditions of the compatibility study): not generated
- Impurity A level, Initial ([1]; initial): 0.03
SMILES: CCCCC(=O)N(Cc1ccc(-c2ccccc2-c2nnn[nH]2)cc1)[C@H](C(=O)O)C(C)C [Valsartan API, (S)—N-(1-oxopentyl)-N-[[2′-(1H-tetrazol-5-yl) [1,1′-biphenyl]-4-yl]methyl]-L-valine]
- absolute bioavailability [2]: about 25%

From US10010529B2, “Extended release pharmaceutical formulations with controlled impurity levels” (Ezra Pharma LLC, priority 2016, dated 2018)
